Data from the supplement of paper PMC11061612.

Assays:
Experiment in all cases: combination Emax (second highest fraction inhibited in the dose matrix, 72 h); higher = more inhibition; extreme values may be limits of the assay
[1] = system: BFTC-905 (Bladder Carcinoma)
In short: (§1)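 Cell lines in DMEM/F12 or RPMI with 10% FBS were plated in 1536-well plates, held 24 hours at 37°C, 5% CO2, then given two-drug dose matrices for 72 hours (DMSO typically 0.2%). Viability was read by CellTiter-Glo 2.0 luminescence and scaled as inhibition from 0 (vehicle wells) to 1 (blank wells). Combination Emax is the second-highest inhibition in the matrix; Bliss excess is observed combination effect minus expected EA + EB − EA·EB, EA and EB being single-agent effects.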

[2] = system: BL-41 (Burkitt's Lymphoma)
In short: as §1

[3] = system: CAMA-1 (Breast Carcinoma)
In short: as §1

[4] = system: COLO-678 (Colorectal Carcinoma)
In short: as §1

[5] = system: DiFi (Colorectal Carcinoma)
In short: as §1

ES8 (Ewing's Sarcoma) = system: ES8 (Ewing's Sarcoma)
In short: as §1

[6] = system: EVSA-T (Breast Carcinoma)
In short: as §1

[7] = system: HL-60 (Acute Myeloid Leukemia)
In short: as §1

[8] = system: KM12 (Colorectal Carcinoma)
In short: as §1

[9] = system: KYSE-180 (Esophageal Squamous Cell Carcinoma)
In short: as §1

LN-18 (Glioblastoma) = system: LN-18 (Glioblastoma)
In short: as §1

MEL-JUSO (Melanoma) = system: MEL-JUSO (Melanoma)
In short: as §1

[10] = system: MOLT-16 (T-Lymphoblastic Leukemia)
In short: as §1

[11] = system: P12-ICHIKAWA (T-Lymphoblastic Leukemia)
In short: as §1

[12] = system: SW1417 (Colorectal Carcinoma)
In short: as §1

[13] = system: SW837 (Colorectal Carcinoma)
In short: as §1

[14] = system: TE-6 (Esophageal Squamous Cell Carcinoma)
In short: as §1

[15] = system: TOV-112D (Ovarian Carcinoma)
In short: as §1

U251 (Low Grade Glioma) = system: U251 (Low Grade Glioma)
In short: as §1

WIL2-NS (Non-Cancerous) = system: WIL2-NS (Non-Cancerous)
In short: as §1

Compound | combination Emax [1] | combination Emax [2] | combination Emax [3] | combination Emax [4] | combination Emax [5] | combination Emax (ES8 (Ewing's Sarcoma)) | combination Emax [6] | combination Emax [7] | combination Emax [8] | combination Emax [9] | combination Emax (LN-18 (Glioblastoma)) | combination Emax (MEL-JUSO (Melanoma)) | combination Emax [10] | combination Emax [11] | combination Emax [12] | combination Emax [13] | combination Emax [14] | combination Emax [15] | combination Emax (U251 (Low Grade Glioma)) | combination Emax (WIL2-NS (Non-Cancerous))
NC1(C(=O)N[C@@H](CCO)c2ccc(Cl)cc2)CCN(c2ncnc3[nH]ccc23)CC1 [Capivasertib] + CC(C)n1c(=O)n(C)c2cnc3cc(F)c(-c4ccc(OCCCN5CCCCC5)nc4)cc3c21 [AZD1390] (first compound max 10 µM, 7x7, partner max 0.3 µM) | 0.221 | 0.297 | 0.665 | 0.146 | 0.592 | 0.545 | 0.975 | 0.225 | 0.755 | 0.488 | 0.432 | 0.164 | 0.719 | 0.489 | 0.276 | 0.25 | 0.599 | 0.175 | 0.284 | 0.682
NC1(C(=O)N[C@@H](CCO)c2ccc(Cl)cc2)CCN(c2ncnc3[nH]ccc23)CC1 [Capivasertib] + CCN(CCO)CCCOc1ccc2c(Nc3cc(CC(=O)Nc4cccc(F)c4)[nH]n3)ncnc2c1 [AZD2811] (first compound max 10 µM, 7x7, partner max 1 µM) | 0.428 | 0.706 | 0.768 | 0.222 | 0.658 | 1 | 0.979 | 0.859 | 0.77 | 0.51 | 0.597 | 0.274 | 1 | 1 | 0.278 | 0.261 | 0.673 | 0.42 | 0.444 | 0.641
NC1(C(=O)N[C@@H](CCO)c2ccc(Cl)cc2)CCN(c2ncnc3[nH]ccc23)CC1 [Capivasertib] + COc1nnc2ccc(N3CCC(c4ccc(OCCN5CCN(C)C(=O)[C@H]5C)cc4)CC3)nn12 [AZD5153] (first compound max 10 µM, 7x7, partner max 1 µM) | 0.681 | 0.974 | 0.928 | 0.396 | 0.718 | 0.798 | 1 | 1 | 0.847 | 0.616 | 0.779 | 0.36 | 1 | 0.994 | 0.482 | 0.538 | 0.754 | 0.665 | 0.578 | 0.848
NC1(C(=O)N[C@@H](CCO)c2ccc(Cl)cc2)CCN(c2ncnc3[nH]ccc23)CC1 [Capivasertib] + C[C@@H]1COCCN1C2=NC(=NC(=C2)C3(CC3)[S@](=N)(=O)C)C4=C5C=CNC5=NC=C4 [AZD6738] (first compound max 10 µM, 7x7, partner max 10 µM) | 0.623 | 0.981 | 0.684 | 0.237 | 0.779 | 0.961 | 0.959 | 0.805 | 0.91 | 0.554 | 0.846 | 0.524 | 1 | 1 | 0.497 | 0.385 | 0.754 | 0.718 | 0.444 | 0.919
NC1(C(=O)N[C@@H](CCO)c2ccc(Cl)cc2)CCN(c2ncnc3[nH]ccc23)CC1 [Capivasertib] + Cn1cnc2c(F)c(Nc3ccc(Br)cc3Cl)c(C(=O)NOCCO)cc21 [Selumetinib] (first compound max 10 µM, 7x7, partner max 10 µM) | 0.746 | 0.287 | 0.693 | 0.544 | 0.905 | 0.533 | 0.947 | 0.874 | 0.868 | 0.48 | 0.603 | 0.545 | 0.805 | 0.748 | 0.586 | 0.603 | 0.736 | 0.313 | 0.494 | 0.771
Cc1nc(Nc2ncc(C(=O)Nc3c(C)cccc3Cl)s2)cc(N2CCN(CCO)CC2)n1 [Dasatinib] + CC(=O)Nc1cccc(-n2c(=O)n(C3CC3)c(=O)c3c(Nc4ccc(I)cc4F)n(C)c(=O)c(C)c32)c1 [Trametinib] (first compound max 2 µM, 7x7, partner max 1 µM) | 0.863 | 0.144 | 0.127 | 0.559 | 0.784 | 0.223 | 0.176 | 0.703 | 0.714 | 0.411 | 0.353 | 0.497 | 0.326 | 0.517 | 0.834 | 0.764 | 0.535 | 0.749 | 0.781 | 0.721
